Test results as given in patent US8691789B2, “Probe of iodine-123 marker thymidine (FLT)analogue [123I]-IaraU” (Atomic Energy Council-Institute of Nuclear Research, priority 2012, dated 2014).
“Also recorded” adds a separate entry of the source.

Key:
Type in all cases: cell-based
NG4TL4-wild type cells = test: cellular uptake experiment of [^123I]-IaraU in NG4TL4-wild type cells
Description: (§1) Please refer to FIG. 3 which is a schematic view of experimental results of cell absorption of [^123I]-IaraU according to the invention. As shown, the present invention utilizes the above synthesized iodine-123 marker FLT analogue for in vitro experiments which totally use cells of NG4TL4-wild type, NG4TL4-HSVtk, NG4TL4-sr39tk. They are cultivated in the DMEM (Dulbecco's Modified Eagle's Medium) medium containing 10% fetal bovine serum at 37° C. and in the environment having 5% carbon dioxide. Then they are planted in 96-well plate at the proportion of 1×10^5 cells/well for 12 hours, and then subjected to biological experiments.
(§2) Before the cellular uptake experiment starts, 1 mCi of the above [^123I]-IaraU 8 or [^18F]-FLT (from INER) is thoroughly mixed with 50 ml of serum-free DMEM medium. The cultivated medium on the 96-well plate is drained out, and the aforementioned cultivated medium mixed with radioactive material is immediately added material with the ratio of 200 μl/well. The cells to which the cultivated medium has been added are placed back to an incubator of 5% CO2 at 37° C. […] Finally, a Gamma-Counter is used to measure the radioactivity of cytoplasm for each individual supernatant. The formula for analysis is as follows: (Radioactivity of cytoplasm/Activity as whole)×100%.

NG4TL4-HSVtk cells = test: cellular uptake experiment of [^123I]-IaraU in NG4TL4-HSVtk cells
Description: as §1, §2

NG4TL4-sr39tk cells = test: cellular uptake experiment of [^123I]-IaraU in NG4TL4-sr39tk cells
Description: as §1, §2

[1] = after five hours, % of the total amount
[2] = time points 0.25, 0.5, 1.5, 3 and 5 hours

In the case of `O=c1[nH]c(=O)n([C@@H]2O[C@H](CO)C(O)C2O)cc1[123I]` (stereo partly drawn) [[^123I]-IaraU, 1-(β-D-arabinofuranosyl)-5-[^123I]iodopyrimidin-2,4(3H)-dione], the “maximum intake (radioactivity of cytoplasm/activity as whole ×100%)” value (NG4TL4-wild type cells; [1]) is reported as “not more than 10%”, the “cellular uptake over time (in words)” value (NG4TL4-wild type cells; [2]) is reported as “no significant intake; also recorded: no significant increase in quantity” and the “maximum intake (radioactivity of cytoplasm/activity as whole ×100%)” value (NG4TL4-HSVtk cells; [1]) is reported as “not more than 10%”. The “cellular uptake over time (in words)” value (NG4TL4-HSVtk cells; [2]) was “no significant intake; also recorded: no significant increase in quantity”, the “maximum intake (radioactivity of cytoplasm/activity as whole ×100%)” value (NG4TL4-sr39tk cells; [1]) was “not more than 10%” and the “cellular uptake over time (in words)” value (NG4TL4-sr39tk cells; [2]) was “no significant intake; also recorded: no significant increase in quantity”.
